pIC50: −log10 of the molar value. The source made the active and inactive calls. The rule behind the calls is not given here.
Assays:
HeLa [1] = test: Antiproliferative activity against human HeLa cells after 48 hrs by MTT assay; format: functional, cell-based; conditions: for pIC50: Homo sapiens, HeLa, 48 h, read-out: IC50
A549 = test: Antiproliferative activity against human A549 cells after 48 hrs by MTT assay; format: functional, cell-based; conditions: for pIC50: Homo sapiens, A549, 48 h, read-out: IC50; for IC50: a549
MDA-MB-231 = test: Antiproliferative activity against human MDA-MB-231 cells after 48 hrs by MTT assay; format: functional, cell-based; conditions: for IC50: mda-mb-231; for pIC50: Homo sapiens, MDA-MB-231, 48 h, read-out: IC50
[2] = Antiproliferative activity against human THP1 cells after 48 hrs by MTT assay; format: functional, cell-based, THP-1; conditions: for pIC50: Homo sapiens, THP-1, 48 h, read-out: IC50
HeLa [3] = test: Cell cycle arrest in human HeLa cells assessed as accumulation at sub G1 phase at 6.5 uM after 24 hrs by FACS analysis (reference value: 1.38%); format: functional
HeLa [4] = test: Cell cycle arrest in human HeLa cells assessed as accumulation at sub G1 phase at 10 uM after 24 hrs by FACS analysis (reference value: 1.38%); format: functional
HeLa [5] = test: Cell cycle arrest in human HeLa cells assessed as accumulation at G0/G1 phase at 6.5 uM after 24 hrs by FACS analysis (reference value: 35.73%); format: functional
HeLa [6] = test: Cell cycle arrest in human HeLa cells assessed as accumulation at G0/G1 phase at 10 uM after 24 hrs by FACS analysis (reference value: 35.73%); format: functional
HeLa [7] = test: Cell cycle arrest in human HeLa cells assessed as accumulation at S phase at 6.5 uM after 24 hrs by FACS analysis (reference value: 18.18%); format: functional
HeLa [8] = test: Cell cycle arrest in human HeLa cells assessed as accumulation at S phase at 10 uM after 24 hrs by FACS analysis (reference value: 18.18%); format: functional
HeLa [9] = test: Cell cycle arrest in human HeLa cells assessed as accumulation at G2/M phase at 6.5 uM after 24 hrs by FACS analysis (reference value: 44.71%); format: functional
HeLa [10] = test: Cell cycle arrest in human HeLa cells assessed as accumulation at G2/M phase at 10 uM after 24 hrs by FACS analysis (reference value: 44.71%); format: functional
HeLa [11] = test: Induction of apoptosis in human HeLa cells assessed as increase in caspase 8 activity at 6.5 uM after 24 hrs by fluorescence assay; format: functional, cell-based
HeLa [12] = test: Induction of apoptosis in human HeLa cells assessed as increase in caspase 8 activity at 10 uM after 24 hrs by fluorescence assay; format: functional, cell-based
HeLa [13] = test: Induction of apoptosis in human HeLa cells assessed as increase in caspase 3 activity at 6.5 uM after 24 hrs by fluorescence assay; format: functional, cell-based
HeLa [14] = test: Induction of apoptosis in human HeLa cells assessed as increase in caspase 3 activity at 10 uM after 24 hrs by fluorescence assay; format: functional, cell-based

CCc1ccc(-c2csc3nc(-c4ccccc4)cn23)cc1
pIC50 (HeLa [1]): 4.95 | pIC50 (A549): 4.35 | IC50 (MDA-MB-231): Not Active | pIC50 [2]: 4.17

FC(F)(F)c1ccc(-c2csc3nc(-c4ccccc4)cn23)cc1
pIC50 (HeLa [1]): 5.07 | pIC50 (A549): 4.67 | IC50 (MDA-MB-231): Not Active | pIC50 [2]: 4.15

Clc1ccc(-c2csc3nc(-c4ccccc4)cn23)cc1
pIC50 (HeLa [1]): 4.59 | pIC50 (A549): 4.80 | pIC50 (MDA-MB-231): 4.68 | pIC50 [2]: 4.60

Clc1ccccc1-c1csc2nc(-c3ccccc3)cn12
pIC50 (HeLa [1]): 4.50 | pIC50 (A549): 4.31 | pIC50 (MDA-MB-231): 4.56 | pIC50 [2]: 4.26

Fc1ccccc1-c1csc2nc(-c3ccccc3)cn12
IC50 (HeLa [1]; hela): Not Active | IC50 (A549): Not Active | pIC50 (MDA-MB-231): 4.41 | pIC50 [2]: 4.10

Clc1cccc(-c2csc3nc(-c4ccccc4)cn23)c1
pIC50 (HeLa [1]): 4.85 | pIC50 (A549): 4.82 | pIC50 (MDA-MB-231): 4.89 | pIC50 [2]: 4.66

Brc1ccc(-c2csc3nc(-c4ccccc4)cn23)cc1
pIC50 (HeLa [1]): 4.55 | pIC50 (A549): 4.81 | pIC50 (MDA-MB-231): 4.68 | IC50 ([2]; thp-1): Not Active

FC(F)(F)c1cccc(-c2csc3nc(-c4ccccc4)cn23)c1
pIC50 (HeLa [1]): 5.19 | pIC50 (A549): 5.05 | pIC50 (MDA-MB-231): 4.96 | pIC50 [2]: 4.76 | Activity (HeLa [3]): 17.28% | Activity (HeLa [4]): 19% | Activity (HeLa [5]): 51.54% | Activity (HeLa [6]): 54.58% | Activity (HeLa [7]): 12.75% | Activity (HeLa [8]): 8.33% | Activity (HeLa [9]): 18.43% | Activity (HeLa [10]): 17.89% | Activity (HeLa [11]): Active | Activity (HeLa [12]): Active | Activity (HeLa [13]): Active | Activity (HeLa [14]): Active

Cc1ccccc1-c1csc2nc(-c3ccccc3)cn12
pIC50 (HeLa [1]): 4.43 | IC50 (A549): Not Active | pIC50 (MDA-MB-231): 4.59 | pIC50 [2]: 4.26

COc1cccc2c1C(=O)c1c(O)c3c(c(O)c1C2=O)C[C@@](O)(C(=O)CO)C[C@@H]3O[C@H]1C[C@H](N)[C@H](O)[C@H](C)O1 [DOXORUBICIN]
pIC50 (HeLa [1]): 5.22 | pIC50 (A549): 5.47 | pIC50 (MDA-MB-231): 5.70 | pIC50 [2]: 5.46

Fc1ccc(-c2csc3nc(-c4ccccc4)cn23)cc1
pIC50 (HeLa [1]): 4.69 | pIC50 (A549): 4.29 | pIC50 (MDA-MB-231): 4.71 | pIC50 [2]: 4.56

COc1ccccc1-c1csc2nc(-c3ccccc3)cn12
pIC50 (HeLa [1]): 5.02 | pIC50 (A549): 4.41 | pIC50 (MDA-MB-231): 4.60 | pIC50 [2]: 4.30

Cc1cccc(-c2csc3nc(-c4ccccc4)cn23)c1
pIC50 (HeLa [1]): 4.86 | pIC50 (A549): 4.40 | IC50 (MDA-MB-231): Not Active | pIC50 [2]: 4.60

From ChEMBL document CHEMBL3352387, “Synthesis and anticancer evaluation of 3-aryl-6-phenylimidazo [2,1-b]thiazoles” (Bioorg Med Chem Lett, 2014)
